# Data from US4396543A.
# Values joined by “and” are separate entries in the source; they are usually repeats but may differ in a detail not shown here. Equal entries are not always repeated.
# Columns and labels:
# [1] = system: Streptococcus pyogenes C203; experiment: agar-dilution MIC; format: cell-based; conditions: two values = two experiments, 2 median of five, 19 median of three
# [2] = system: Staphylococcus aureus X400; experiment: agar-dilution MIC; format: cell-based; conditions: Staphylococcus aureus X400, methicillin-resistant strain; two values = two experiments; 2 median of five, 19 median of three
# Experimental: (§1) In Table VII activity is measured by the minimal inhibitory concentration (MIC), i.e. the lowest concentration of compound at which growth of the microorganism is inhibited by the test compound.
# Streptococcus pyogenes = experiment: in vivo experimental bacterial infection, ED50; conditions: mice; for ED50 Values Streptococcus pyogenes Oral: two doses orally; for ED50 Values Streptococcus pyogenes Subcutaneous: two doses subcutaneously, two values = two experiments
# [3] = system: Staphylococcus epidermidis EPI1; format: cell-based; conditions: two values = two experiments, 2 median of five, 19 median of three
# [4] = system: Staphylococcus aureus V41; experiment: agar-dilution MIC; format: cell-based; conditions: Staphylococcus aureus V41, penicillin-resistant strain; two values = two experiments; 2 median of five, 19 median of three
# Experimental: as §1
# [5] = system: Staphylococcus epidermidis EPI2; experiment: agar-dilution MIC; format: cell-based; conditions: two values = two experiments, 2 median of five, 19 median of three
# [6] = system: Staphylococcus aureus X1.1; experiment: agar-dilution MIC; format: cell-based; conditions: two values = two experiments, 2 median of five, 19 median of three experiments
# Experimental: as §1
# [7] = system: Streptococcus Group D X66; experiment: agar-dilution MIC; format: cell-based; conditions: two values = two experiments, 2 median of five, 19 median of three
# Experimental: as §1
# Staphylococcus aureus = experiment: in vivo experimental bacterial infection, ED50; conditions: mice, two doses subcutaneously; two values = two experiments
# [8] = system: Streptococcus Group D 9960; experiment: agar-dilution MIC; format: cell-based; conditions: two values = two experiments, 2 median of five, 19 median of three
# Experimental: as §1
# toxicity test, LD50 = conditions: mouse, in vivo, iv; administered intravenously; read-out: LD50 (mg/kg) in Mice
Structure (SMILES),MIC [1] [µg/mL],MIC [2] [µg/mL],ED50 Values Streptococcus pyogenes Oral (Streptococcus pyogenes) [mg/kg × 2],ED50 Values Streptococcus pyogenes Subcutaneous (Streptococcus pyogenes),MIC [3] [µg/mL],MIC [4] [µg/mL],MIC [5] [µg/mL],MIC [6] [µg/mL],MIC [7] [µg/mL],ED50 Values Staphylococcus aureus Subcutaneous (Staphylococcus aureus) [mg/kg × 2],MIC [8] [µg/mL],"LD50 (toxicity test, LD50) [mg/kg]"
CCCCCCCCCCCCC(=O)N[C@@H](Cc1ccccc1)C(=O)N[C@@H](Cc1c[nH]c2ccccc12)C(=O)N[C@H](CC(N)=O)C(=O)N[C@@H](CC(=O)O)C(=O)N[C@@H]1C(=O)NCC(=O)N[C@@H](CCCN)C(=O)N[C@@H](CC(=O)O)C(=O)N[C@H](C)C(=O)N[C@@H](CC(=O)O)C(=O)NCC(=O)N[C@H](CO)C(=O)N[C@@H]([C@H](C)CC(=O)O)C(=O)N[C@@H](CC(=O)c2ccccc2N)C(=O)O[C@@H]1C [Compound 21],0.125,2,> 200,0.14 mg/kg × 2,2,0.5,2,0.5,1,0.76,0.25,
CCCCCC(=O)N[C@@H](Cc1c[nH]c2ccccc12)C(=O)NCCC[C@@H]1NC(=O)CNC(=O)[C@@H](NC(=O)[C@H](CC(=O)O)NC(=O)[C@@H](CC(N)=O)NC(=O)[C@H](Cc2c[nH]c3ccccc23)NC(=O)CCCCCCCCC(C)CC)[C@@H](C)OC(=O)[C@H](CC(=O)c2ccccc2N)NC(=O)[C@H]([C@H](C)CC(=O)O)NC(=O)[C@@H](CO)NC(=O)CNC(=O)[C@H](CC(=O)O)NC(=O)[C@@H](C)NC(=O)[C@H](CC(=O)O)NC1=O (stereo partly drawn) [Compound 29],,1,> 200,10.6 mg/kg × 2,,,,,8,,32,37.5
CCCCCCCCCCC(=O)N[C@@H](Cc1ccccc1)C(=O)NCCC[C@@H]1NC(=O)CNC(=O)[C@@H](NC(=O)[C@H](CC(=O)O)NC(=O)[C@@H](CC(N)=O)NC(=O)[C@@H](N)Cc2c[nH]c3ccccc23)[C@@H](C)OC(=O)[C@H](CC(=O)c2ccccc2N)NC(=O)[C@H]([C@H](C)CC(=O)O)NC(=O)[C@@H](CO)NC(=O)CNC(=O)[C@H](CC(=O)O)NC(=O)[C@@H](C)NC(=O)[C@H](CC(=O)O)NC1=O [Compound 26],1,> 128,> 200,> 18 mg/kg × 2,> 128,> 128,> 128,8,> 128,9.2,32,
CCCCCCCCCCCC(=O)Nc1ccc(C(=O)N[C@@H](Cc2c[nH]c3ccccc23)C(=O)N[C@H](CC(N)=O)C(=O)N[C@@H](CC(=O)O)C(=O)N[C@@H]2C(=O)NCC(=O)N[C@@H](CCCN)C(=O)N[C@@H](CC(=O)O)C(=O)N[C@H](C)C(=O)N[C@@H](CC(=O)O)C(=O)NCC(=O)N[C@H](CO)C(=O)N[C@@H]([C@H](C)CC(=O)O)C(=O)N[C@@H](CC(=O)c3ccccc3N)C(=O)O[C@@H]2C)cc1 [Compound 4],,8,> 200,18.8 mg/kg × 2,,,,4,,< 5,,> 300
CCCCCCCCCCCCCC(=O)N[C@@H](Cc1ccccc1)C(=O)N[C@@H](Cc1c[nH]c2ccccc12)C(=O)N[C@H](CC(N)=O)C(=O)N[C@@H](CC(=O)O)C(=O)N[C@@H]1C(=O)NCC(=O)N[C@@H](CCCN)C(=O)N[C@@H](CC(=O)O)C(=O)N[C@H](C)C(=O)N[C@@H](CC(=O)O)C(=O)NCC(=O)N[C@H](CO)C(=O)N[C@@H]([C@H](C)CC(=O)O)C(=O)N[C@@H](CC(=O)c2ccccc2N)C(=O)O[C@@H]1C [Compound 22],0.25,2,> 200,< 0.27 mg/kg × 2 and 0.36 mg/kg × 2,4,1,4,0.5,1,4.8,0.5,
